Reference: the supplement of paper PMC11208160

Test: recombinant barcode read abundance after kanamycin selection (control-corrected) (log10(CPM+1)); higher = more efficient recombination; sequences stand for … in AGTGCAGAGAAAATCGGCCAGTTTTCTCTGCCTGCAGTCCGCATGCCGT…AGATTTATGCAGCGGACTGCCTTTCTCCCAAAGTGATAAACCGGACAGTATCATGGACCGGTTTTCCCGGTAATCCGTATTTGCAAGGTTGGTTTCACT; site = the 11-nt target
How it was run: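 Duplicate cultures were plated either on chloramphenicol/ampicillin LB agar, serving as control, or on chloramphenicol/ampicillin/kanamycin with 0.1 mM IPTG. These came from a pooled E. coli library co-electroporated with a donor plasmid, each member pairing a target with an IS621 bridge RNA target-binding loop. Recombination efficiency equals averaged, control-corrected counts per million of recombinant-junction barcodes. It is listed as log10(CPM+1).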
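Note: IS621 recombinase and bridge RNA in Escherichia coli cells.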

| Sequence | recombinant barcode read abundance (log10) |
| --- | --- |
| GCACGAACTTGGGTTCTAACCTGTTGCCT (site GCGCGAACTAG) | 0.0581 |
| GCACGAACTTGGGTTCTAACCTGTTGCCT (site GCTCGAACTAG) | 0.0171 |
| GCACTACCTTGGGTTCTAACCTGTTGCCT (site GCACAACCTAG) | 0.0611 |
| GCACTACCTTGGGTTCTAACCTGTTGCCT (site GCACCACCTAG) | 0.534 |
| GCACTACCTTGGGTTCTAACCTGTTGCCT (site GCACGACCTAG) | 0.166 |
| GCACTACCTTGGGTTCTAACCTGTTGCCT (site GCACTACCTAG) | 1.37 |
| GCACTGCCTTGGGTTCTAACCTGTTGCCT (site GCACTGCCTAG) | 1.31 |
| GCACTGCCTTGGGTTCTAACCTGTTGCCT (site GCCCTGCCTAG) | 0.233 |
| GCAGCGACTTGGGTTCTAACCTGTTGCCT (site GCAGCGACTAG) | 1.78 |
| GCAGCGACTTGGGTTCTAACCTGTTGCCT (site GCCGCGACTAG) | 0.148 |
| GCAGCGACTTGGGTTCTAACCTGTTGCCT (site GCGGCGACTAG) | 0.277 |
| GCAGCGACTTGGGTTCTAACCTGTTGCCT (site GCTGCGACTAG) | 0.194 |
| GCAGGGTCTTGGGTTCTAACCTGTTGCTT (site GCAGGGTCTAA) | 2.4 |
| GCAGGGTCTTGGGTTCTAACCTGTTGCTT (site GCCGGGTCTAA) | 0.658 |
| GCAGGGTCTTGGGTTCTAACCTGTTGCTT (site GCGGGGTCTAA) | 0.646 |
| GCAGGGTCTTGGGTTCTAACCTGTTGCTT (site GCTGGGTCTAA) | 0.355 |
| GCAGGTCCTTGGGTTCTAACCTGTTGCCT (site GCAGGTCCTAG) | 0.788 |
| GCAGGTCCTTGGGTTCTAACCTGTTGCCT (site GCCGGTCCTAG) | 0.512 |

| Sequence | recombinant barcode read abundance (log10) |
| --- | --- |
| GCAGGTCCTTGGGTTCTAACCTGTTGCCT (site GCGGGTCCTAG) | 0.744 |
| GCAGGTCCTTGGGTTCTAACCTGTTGCCT (site GCTGGTCCTAG) | 0.397 |
| GCAGTAGCTTGGGTTCTAACCTGTTGCCA (site CCGGTAGCTTG) | 0.188 |
| GCAGTAGCTTGGGTTCTAACCTGTTGCCA (site GCAGTAGCTTG) | 0.382 |
| GCATATACTTGGGTTCTAACCTGTTGCGT (site AGTCCCGCTTG) | 0 |
| GCATATACTTGGGTTCTAACCTGTTGCGT (site GCATATACTAC) | 2.15 |
| GCATCGGCTTGGGTTCTAACCTGTTGCCT (site GCATCGGCTAG) | 1.22 |
| GCATCGGCTTGGGTTCTAACCTGTTGCCT (site GCCTCGGCTAG) | 0.0153 |
| GCATCGGCTTGGGTTCTAACCTGTTGCCT (site GCGTCGGCTAG) | 0.0974 |
| GCATCGGCTTGGGTTCTAACCTGTTGCCT (site GCTTCGGCTAG) | 0.0102 |
| GCATGACCTTGGGTTCTAACCTGTTGCAG (site CACAATACTAG) | 0.343 |
| GCATGACCTTGGGTTCTAACCTGTTGCAG (site GCATGACCTCT) | 1.23 |
| GCATGGACTTGGGTTCTAACCTGTTGCAG (site GCAAGGACTCT) | 0.878 |
| GCATGGACTTGGGTTCTAACCTGTTGCAG (site GCACGGACTCT) | 1.92 |
| GCATGGACTTGGGTTCTAACCTGTTGCAG (site GCAGGGACTCT) | 0.241 |
| GCATGGACTTGGGTTCTAACCTGTTGCAG (site GCATGGACTCT) | 2.24 |
| GCCAACCCTTGGGTTCTAACCTGTTGCCT (site GCCAACCCTAA) | 0.111 |
| GCCAACCCTTGGGTTCTAACCTGTTGCCT (site GCCAACCCTAC) | 0.0192 |
